According to patent publication US20240262832A1, “SMALL MOLECULE MODULATORS OF GLUCOCEREBROSIDASE ACTIVITY AND USES THEREOF” (Vanqua Bio, Inc., priority 2021, published 2024):
pEC50: −log10 of the molar value.

Biological target: T1, GCase (Homo sapiens, UniProt P04062)
T1 construct: endogenous in cells; host or cells: HeLa cells
T1 sequence (P04062 40-536): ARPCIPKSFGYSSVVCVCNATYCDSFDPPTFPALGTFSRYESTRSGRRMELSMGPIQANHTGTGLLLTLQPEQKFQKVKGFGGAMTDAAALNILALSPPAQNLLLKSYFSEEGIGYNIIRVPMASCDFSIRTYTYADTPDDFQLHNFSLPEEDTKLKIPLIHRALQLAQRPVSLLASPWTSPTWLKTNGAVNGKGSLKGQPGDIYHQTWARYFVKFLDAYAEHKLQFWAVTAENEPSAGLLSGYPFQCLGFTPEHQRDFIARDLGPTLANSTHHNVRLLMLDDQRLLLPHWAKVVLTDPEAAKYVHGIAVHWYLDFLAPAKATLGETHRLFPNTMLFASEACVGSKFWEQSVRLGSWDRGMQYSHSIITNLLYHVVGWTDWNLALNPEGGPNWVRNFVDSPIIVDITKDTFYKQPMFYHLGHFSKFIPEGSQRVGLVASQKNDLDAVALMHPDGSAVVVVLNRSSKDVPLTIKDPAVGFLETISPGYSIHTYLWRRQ
Test: activation of GCase in a live cell PFB assay in HELA cells
Assay type: cell-based

Row | pEC50 | SMILES
1 | > 5.00 | C[C@@H]1C[C@@H](COc2cccnc2C(F)(F)F)CN(c2cnc3cnn(CC(F)F)c3n2)C1 [Compound 95, 1-(2,2-Difluoroethyl)-6-((3R,5R)-3-methyl-5-(((2-(trifluoromethyl)pyridin-3-yl)oxy)methyl)piperidin-1-yl)-1H-pyrazolo[3,4-b]pyrazine]
2 | 4.00 to 4.30 | O=C(N1CCCC(COc2ncccc2C(F)(F)F)C1)N1CCOC(Cc2ccccc2)C1 (stereo not drawn) [Compound 258, (2-Benzylmorpholino)(3-(((3-(trifluoromethyl)pyridin-2-yl)oxy)methyl)piperidin-1-yl)methanone]
3 | 4.30 to 5.00 | C[C@@H]1[C@H](C(=O)N2CCCC(COc3ccccc3)C2)CCN1c1ccccc1 (stereo partly drawn) [Compound 199]
4 | 4.30 to 5.00 | FC(F)Cn1ncc2ncc(N3C[C@@H]4[C@@H](COc5ccc(C(F)(F)F)nc5)[C@@H]4C3)nc21 [Compound 63, (1R,5S,6S)-3-[1-(2,2-difluoroethyl)-1H-pyrazolo[3,4-b]pyrazin-6-yl]-6-({[6-(trifluoromethyl)pyridin-3-yl]oxy}methyl)-3-azabicyclo[3.1.0]hexane]
5 | 4.00 to 4.30 | Cc1cnc2c(C(=O)N3CCCC(COc4ccccc4C)C3)c(-c3ccccc3)n(C)c2n1 (stereo not drawn) [Compound 257, (3,5-Dimethyl-6-phenyl-5H-pyrrolo[2,3-b]pyrazin-7-yl)(3-((o-tolyloxy)methyl)piperidin-1-yl)methanone]
6 | 4.30 to 5.00 | O=C(c1nnc(C2(c3ccccc3)CCOC2)o1)N1CCCC(COc2ccccc2)C1 (stereo not drawn) [Compound 76, 3-(phenoxymethyl)-1-[5-(3-phenyloxolan-3-yl)-1,3,4-oxadiazole-2-carbonyl]piperidine]
7 | > 5.00 | Cc1cnccc1-c1ccc(C(=O)N2CCCC(COc3ccccc3)C2)s1 (stereo not drawn) [Compound 142]
8 | 4.00 to 4.30 | COc1ccc(OCC2CCN(C(=O)CN3C(=O)CCC3C)CC2)cc1 (stereo not drawn) [Compound 483]
9 | 4.30 to 5.00 | COc1ccc(OCC2CCN(C(=O)c3cccc(C#CC(C)(C)O)c3)CC2)cc1 [Compound 420]
10 | 4.00 to 4.30 | COc1ccc(OCC2CCN(C(=O)NCCc3cn[nH]c3)CC2)cc1 [Compound 432]
11 | 4.30 to 5.00 | Cc1cccnc1OCC1CCN(C(=O)C2(c3ccccc3)CCOCC2)CC1 [Compound 360]
12 | 4.30 to 5.00 | Cc1ccccc1OCC1CCCN(C(=O)c2cnc3c(cnn3-c3ccccc3)n2)C1 (stereo not drawn) [Compound 67, (1-phenyl-1H-pyrazolo[3,4-b]pyrazin-5-yl)(3-((o-tolyloxy)methyl)piperidin-1-yl)methanone]
13 | < 4.00 | O=C(c1cc(CC2CC2)on1)N1CCCC(COc2ccccc2)C1 (stereo not drawn) [Compound 188]
14 | 4.00 to 4.30 | Fc1cnc(OC[C@@H]2[C@H]3CN(c4cnc5cnn(C6COC6)c5n4)C[C@@H]23)c(F)c1 [Compound 120, 6-((1R,5S,6r)-6-(((3,5-difluoropyridin-2-yl)oxy)methyl)-3-azabicyclo[3.1.0]hexan-3-yl)-1-(oxetan-3-yl)-1H-pyrazolo[3,4-b]pyrazine]
15 | < 4.00 | CCc1noc(CNC(=O)N2CCC(COc3ccc(OC)cc3)CC2)n1 [Compound 436]
16 | 4.30 to 5.00 | CCc1cnc(C)nc1N1CCC(COc2ccc(OC)cc2)CC1 [Compound 475]
17 | > 5.00 | C[C@H](Oc1ccccc1C(F)(F)F)[C@@H]1CCCN(c2cnc3cnn(CC(F)F)c3n2)C1 (racemic) [Compound 5c]
18 | 4.30 to 5.00 | C[C@@H](Oc1ccccc1C(F)(F)F)[C@H]1CCCN(c2cnc3cnn(CC(F)F)c3n2)C1 [Compound 266a, 1-(2,2-Difluoroethyl)-6-((S)-3-((R)-1-(2-(trifluoromethyl)phenoxy)ethyl)piperidin-1-yl)-1H-pyrazolo[3,4-b]pyrazine]
19 | > 5.00 | N#Cc1cccnc1OC1CCN(C(=O)C2(c3ccc(Cl)cc3)CCCC2)CC1 [Compound 370]
20 | < 4.00 | O=C(c1cn(CC2CCCCC2)nn1)N1CCC(OCc2ccccc2)CC1 [Compound 419]
21 | 4.30 to 5.00 | FC(F)(F)c1cccc(OCC2CN(c3cncc(-c4nncs4)n3)CCC2(F)F)n1 (stereo not drawn) [Compound 64, 2-[4,4-Difluoro-3-({[6-(trifluoromethyl)pyridin-2-yl]oxy}methyl)piperidin-1-yl]-6-(1,3,4-thiadiazol-2-yl)pyrazine]
22 | < 4.00 | C[C@H]1CC[C@H](COc2cccnc2C(F)(F)F)CN1c1cnc2cnn(CC(F)F)c2n1 [Compound 78, 3-{[(3S,6S)-1-[1-(2,2-Difluoroethyl)pyrazolo[3,4-b]pyrazin-6-yl]-6-methylpiperidin-3-yl]methoxy}-2-(trifluoromethyl)pyridine]
23 | 4.30 to 5.00 | C[C@@H]1CC[C@H](COc2ccnc(C(F)(F)F)c2)CN1c1cnc2cnn(CC(F)F)c2n1 [Compound 278, 1-(2,2-Difluoroethyl)-6-((2R,5S)-2-methyl-5-(((2-(trifluoromethyl)pyridin-4-yl)oxy)methyl)piperidin-1-yl)-1H-pyrazolo[3,4-b]pyrazine]

Row | pEC50 | SMILES
24 | 4.30 to 5.00 | CC1CCC(COc2cccnc2C(F)(F)F)CN1C(=O)c1ccc2cc[nH]c2c1 (stereo not drawn) [Compound 128, (1H-Indol-6-yl)(2-methyl-5-(((2-(trifluoromethyl)pyridin-3-yl)oxy)methyl)piperidin-1-yl)methanone]
25 | 4.30 to 5.00 | FC(F)Cn1ncc2ncc(N3CC4CC4(COc4cccc(C(F)(F)F)n4)C3)nc21 (stereo not drawn) [Compound 284, 3-[1-(2,2-Difluoroethyl)-1H-Pyrazolo[3,4-b]Pyrazin-6-Yl]-1-({[6-(Trifluoromethyl)Pyridin-2-Yl]Oxy}Methyl)-3-Azabicyclo[3.1.0]Hexane]
26 | < 4.00 | C=CCn1ncc(CN2CCC(COc3ccc(OC)cc3)CC2)c1C [Compound 469]
27 | 4.30 to 5.00 | CCCC(C(=O)N1CCCC(COc2ccccc2)C1)n1nccc1C1CC1 (stereo not drawn) [Compound 9]
28 | 4.30 to 5.00 | O=C(c1ccc2cc[nH]c2c1)N1CCC(Oc2ccncc2C(F)(F)F)CC1 [Compound 318, (1H-Indol-6-yl)(4-((3-(trifluoromethyl)pyridin-4-yl)oxy)piperidin-1-yl)methanone]
29 | < 4.00 | CCc1nc(CN2CCC(COc3ccc(OC)cc3)CC2)no1 [Compound 470]
30 | 4.30 to 5.00 | FC(F)(F)c1ccc2sc([C@H]3[C@@H]4CN(c5cnc6cnn(C7COC7)c6n5)C[C@@H]43)nc2c1 [Compound 290, 2-((1R,5S,6r)-3-(1-(Oxetan-3-yl)-1H-pyrazolo[3,4-b]pyrazin-6-yl)-3-azabicyclo[3.1.0]hexan-6-yl)-5-(trifluoromethyl)benzo[d]thiazole]
31 | > 5.00 | FC(F)Cn1ncc2ncc(N3CCC(COc4cccnc4C(F)(F)F)CC3)nc21 [Compound 323, 3-({1-[1-(2,2-Difluoroethyl)-1H-pyrazolo[3,4-b]pyrazin-6-yl]piperidin-4-yl}methoxy)-2-(trifluoromethyl)pyridine]
32 | 4.30 to 5.00 | O=C(c1ccc(N2CCCCCC2)cc1)N1CCCC(COc2ccccc2)C1 (stereo not drawn) [Compound 156]
33 | 4.00 to 4.30 | COc1ccc(OCC2CCN(C(=O)c3cnc[nH]3)CC2)cc1 [Compound 463]
34 | < 4.00 | O=C(c1nnc(C(F)(F)c2ccccc2)o1)N1CCCC(COc2ccccc2)C1 (stereo not drawn) [Compound 51, (5-(Difluoro(phenyl)methyl)-1,3,4-oxadiazol-2-yl)(3-(phenoxymethyl)piperidin-1-yl)methanone]
35 | > 5.00 | FC(F)Cn1ncc2ncc(N3CCC(COc4ccc(C(F)(F)F)nc4)CC3)nc21 [Compound 316, 1-(2,2-Difluoroethyl)-6-(4-(((6-(trifluoromethyl)pyridin-3-yl)oxy)methyl)piperidin-1-yl)-1H-pyrazolo[3,4-b]pyrazine]
36 | < 4.00 | COc1ccc(OCC2CCN(C(=O)c3cnc(O)cn3)CC2)cc1 [Compound 452]
37 | < 4.00 | COc1ccc(OCC2CCN(C(=O)c3cnc(N)nc3C)CC2)cc1 [Compound 462]
38 | < 4.00 | COc1ccc(OCC2CCN(Cc3[nH]cnc3C)CC2)cc1 [Compound 453]
39 | 4.30 to 5.00 | Cc1ccccc1OCC1CCCN(C(=O)c2cn(C)c3ccn(-c4ccccc4)c(=O)c23)C1 (stereo not drawn) [Compound 38, 1-Methyl-5-phenyl-3-(3-((o-tolyloxy)methyl)piperidine-1-carbonyl)-1,5-dihydro-4H-pyrrolo[3,2-c]pyridin-4-one]
40 | < 4.00 | C[C@@H]1CCN(c2cnc3cnn(CC(F)F)c3n2)C[C@@H]1COc1cccnc1C(F)(F)F [Compound 48a, 1-(2,2-Difluoroethyl)-6-((3R,4R)-4-methyl-3-(((2-(trifluoromethyl)pyridin-3-yl)oxy)methyl)piperidin-1-yl)-1H-pyrazolo[3,4-b]pyrazine]
41 | 4.30 to 5.00 | O=C(c1cnn(-c2ccc(Cl)cc2)n1)N1CCCC(COc2ccccc2)C1 (stereo not drawn) [Compound 147]
42 | 4.30 to 5.00 | O=C(CCc1cccc(C(F)(F)F)c1)N1CCCC(COc2ccccc2)C1 (stereo not drawn) [Compound 150]
43 | > 5.00 | CN(CC1CCCN(c2ncccc2C(F)(F)F)C1)c1cnc2cnn(CC(F)F)c2n1 (stereo not drawn) [Compound 289, 1-(2,2-Difluoroethyl)-N-methyl-N-((1-(3-(trifluoromethyl)pyridin-2-yl)piperidin-3-yl)methyl)-1H-pyrazolo[3,4-b]pyrazin-6-amine]
44 | > 5.00 | COCCn1ncc2ncc(N3CC(COc4cccnc4C(F)(F)F)CCC3C)nc21 (stereo not drawn) [Compound 123, 1-(2-Methoxyethyl)-6-(2-methyl-5-(((2-(trifluoromethyl)pyridin-3-yl)oxy)methyl)piperidin-1-yl)-1H-pyrazolo[3,4-b]pyrazine]
45 | < 4.00 | O=C(NCCc1ccccc1)N1CCC(Oc2ccc(C(F)(F)F)cn2)CC1 [Compound 379]
